Measurements published in BigSolDB 2.1.

Compound `NC(=O)N/N=C/c1ccc([N+](=O)[O-])o1` has a solubility (mole fraction) (in DMF, 278.15 K) of 0.0219, a solubility (mole fraction) (in DMF, 283.15 K) of 0.0227 and a solubility (mole fraction) (in DMF, 288.15 K) of 0.0235. It also gave a solubility (mole fraction) (in DMF, 293.15 K) of 0.0246, a solubility (mole fraction) (in DMF, 298.15 K) of 0.0265 and a solubility (mole fraction) (in DMF, 303.15 K) of 0.028. It also gave a solubility (mole fraction) (in DMF, 308.15 K) of 0.0289, a solubility (mole fraction) (in DMF, 313.15 K) of 0.0305 and a solubility (mole fraction) (in acetone, 278.15 K) of 0.000298. It also gave a solubility (mole fraction) (in acetone, 283.15 K) of 0.000345, a solubility (mole fraction) (in acetone, 288.15 K) of 0.000392 and a solubility (mole fraction) (in acetone, 293.15 K) of 0.000443. The solubility (mole fraction) (in acetone, 298.15 K) was 0.000512, the solubility (mole fraction) (in acetone, 303.15 K) was 0.000568 and the solubility (mole fraction) (in acetone, 308.15 K) was 0.000647. The solubility (mole fraction) (in acetone, 313.15 K) was 0.000738, the solubility (mole fraction) (in acetonitrile, 278.15 K) was 8.46e-05 and the solubility (mole fraction) (in acetonitrile, 283.15 K) was 0.000103. For the same compound, the solubility (mole fraction) (in acetonitrile, 288.15 K) was 0.000123, the solubility (mole fraction) (in acetonitrile, 293.15 K) was 0.000146 and the solubility (mole fraction) (in acetonitrile, 298.15 K) was 0.000176. The solubility (mole fraction) (in acetonitrile, 303.15 K) was 0.000211, the solubility (mole fraction) (in acetonitrile, 308.15 K) was 0.000247 and the solubility (mole fraction) (in acetonitrile, 313.15 K) was 0.000288. For the same compound, the solubility (mole fraction) (in ethanol, 278.15 K) was 6.97e-05, the solubility (mole fraction) (in ethanol, 283.15 K) was 8.33e-05 and the solubility (mole fraction) (in ethanol, 288.15 K) was 0.0001. It also gave a solubility (mole fraction) (in ethanol, 293.15 K) of 0.000121, a solubility (mole fraction) (in ethanol, 298.15 K) of 0.000143 and a solubility (mole fraction) (in ethanol, 303.15 K) of 0.000175. It also gave a solubility (mole fraction) (in ethanol, 308.15 K) of 0.000213, a solubility (mole fraction) (in ethanol, 313.15 K) of 0.000253 and a solubility (mole fraction) (in formamide, 278.15 K) of 0.00169. The solubility (mole fraction) (in formamide, 283.15 K) was 0.00191, the solubility (mole fraction) (in formamide, 288.15 K) was 0.00208 and the solubility (mole fraction) (in formamide, 293.15 K) was 0.00239. For the same compound, the solubility (mole fraction) (in formamide, 298.15 K) was 0.00267, the solubility (mole fraction) (in formamide, 303.15 K) was 0.00298 and the solubility (mole fraction) (in formamide, 308.15 K) was 0.00334. For the same compound, the solubility (mole fraction) (in formamide, 313.15 K) was 0.00364, the solubility (mole fraction) (in isopropanol, 278.15 K) was 7.04e-05 and the solubility (mole fraction) (in isopropanol, 283.15 K) was 9.57e-05. The solubility (mole fraction) (in isopropanol, 288.15 K) was 0.000113, the solubility (mole fraction) (in isopropanol, 293.15 K) was 0.000131 and the solubility (mole fraction) (in isopropanol, 298.15 K) was 0.000169. For the same compound, the solubility (mole fraction) (in isopropanol, 303.15 K) was 0.000216, the solubility (mole fraction) (in isopropanol, 308.15 K) was 0.000262 and the solubility (mole fraction) (in isopropanol, 313.15 K) was 0.000344. It also gave a solubility (mole fraction) (in methanol, 278.15 K) of 0.000148, a solubility (mole fraction) (in methanol, 283.15 K) of 0.000172 and a solubility (mole fraction) (in methanol, 288.15 K) of 0.000201. The solubility (mole fraction) (in methanol, 293.15 K) was 0.000233, the solubility (mole fraction) (in methanol, 298.15 K) was 0.000282 and the solubility (mole fraction) (in methanol, 303.15 K) was 0.000326. For the same compound, the solubility (mole fraction) (in methanol, 308.15 K) was 0.000387, the solubility (mole fraction) (in methanol, 313.15 K) was 0.00044 and the solubility (mole fraction) (in n-propanol, 278.15 K) was 8.53e-05. The solubility (mole fraction) (in n-propanol, 283.15 K) was 0.000106, the solubility (mole fraction) (in n-propanol, 288.15 K) was 0.00013 and the solubility (mole fraction) (in n-propanol, 293.15 K) was 0.000149. The solubility (mole fraction) (in n-propanol, 298.15 K) was 0.000188, the solubility (mole fraction) (in n-propanol, 303.15 K) was 0.000236 and the solubility (mole fraction) (in n-propanol, 308.15 K) was 0.000285. It also gave a solubility (mole fraction) (in n-propanol, 313.15 K) of 0.000368, a solubility (mole fraction) (in water, 278.15 K) of 1.31e-05 and a solubility (mole fraction) (in water, 283.15 K) of 1.62e-05. The solubility (mole fraction) (in water, 288.15 K) was 1.88e-05, the solubility (mole fraction) (in water, 293.15 K) was 2.29e-05 and the solubility (mole fraction) (in water, 298.15 K) was 2.92e-05. The solubility (mole fraction) (in water, 303.15 K) was 3.66e-05, the solubility (mole fraction) (in water, 308.15 K) was 4.5e-05 and the solubility (mole fraction) (in water, 313.15 K) was 5.89e-05.
